Experimental data published in publication PMC12586182 (Frontiers in Oncology, 2025).

Tests used:
Assay in all cases: Cell viability assay (ATPlite)
Assay type in all cases: cell-based
NCI-H716 = settings: Homo sapiens; NCI-H716 cell line, 72 hours incubation
Protocol: (§1) Intracellular ATP content was used as an indirect readout of cell number using the ATPlite 1Step bioluminescence assay (Revvity, Groningen, the Netherlands). Cells were seeded in 384-well plates at an optimized density to ensure unrestricted growth and maximal signal at the end of the experiment. After 24 hours of incubation, the starting cell number was determined by adding ATPlite to each well of a control plate and recording luminescence on an Envision multimode reader (Revvity, Waltham, MA, USA) ([4]). Compounds were diluted in DMSO in √10-fold steps from 10 mmol/L stocks to obtain 9-point dilution series. After further 31.6-fold dilution in 20 mmol/L HEPES (pH 7.4), the dilution series were added in duplicate to the cells in the 384-well plates to determine the effect of the compounds on cell viability. Vehicle-treated controls were included to determine maximal cell proliferation. The final DMSO concentration was 0.4% (v/v) in all wells. After incubation for an additional 72 hours, the ATP content was measured in each well using ATPlite. The luminescent signal in inhibitor-treated wells was normalized to vehicle-treated control wells to determine the percentage viability at each concentration. Cell doublings were determined by relating the cell number of vehicle-treated controls to the starting cell number for each cell line. The viability assay of a cell line was repeated when the cell doubling deviated > 2-fold from the historic doubling as determined by multiple independent experiments. The quality of the complete assay was determined by a parallel test with doxorubicin on two cell lines. IC50 values were calculated by fitting a four-parameter logistic model to the percentage viability values using IDBS XLfit5 (IDBS, Guildford, United Kingdom). All curves were visually inspected and submitted to an F-test as implemented in IDBS XLfit5. Curves with an F-value above 1.5 were invalidated and IC50 values were maximized at the highest concentration.

RS4;11 = settings: Homo sapiens; RS4;11 cell line, 72 hours incubation
Protocol: as §1

COLO 829 = settings: Homo sapiens; COLO 829 cell line, 72 hours incubation
Protocol: as §1

HEC-6 = settings: Homo sapiens; HEC-6 cell line, 72 hours incubation
Protocol: as §1

SR = settings: Homo sapiens; SR cell line, 72 hours incubation
Protocol: as §1

LC-2/ad = settings: Homo sapiens; LC-2/ad cell line, 72 hours incubation
Protocol: as §1

K-562 = settings: Homo sapiens, K562; K-562 cell line, 72 hours incubation
Protocol: as §1

TT = settings: Homo sapiens; TT cell line, 72 hours incubation
Protocol: as §1

CCRF-CEM = settings: Homo sapiens; CCRF-CEM cell line, 72 hours incubation
Protocol: as §1

Hs 746.T = settings: Homo sapiens, Hs746T; Hs 746.T cell line, 72 hours incubation
Protocol: as §1

ES-2 = settings: Homo sapiens; ES-2 cell line, 72 hours incubation
Protocol: as §1

DU4475 = settings: Homo sapiens, DU-4475; DU4475 cell line, 72 hours incubation
Protocol: as §1

Hep-G2 = settings: Homo sapiens, HepG2; Hep-G2 cell line, 72 hours incubation
Protocol: as §1

CTV-1 = settings: Homo sapiens; CTV-1 cell line, 72 hours incubation
Protocol: as §1

RPMI-7951 = settings: Homo sapiens; RPMI-7951 cell line, 72 hours incubation
Protocol: as §1

CAL-27 = settings: Homo sapiens; CAL-27 cell line, 72 hours incubation
Protocol: as §1

LS411N = settings: Homo sapiens, LS-411N; LS411N cell line, 72 hours incubation
Protocol: as §1

T98G = settings: Homo sapiens; T98G cell line, 72 hours incubation
Protocol: as §1

MeWo = settings: Homo sapiens; MeWo cell line, 72 hours incubation
Protocol: as §1

L-82 = settings: Homo sapiens; L-82 cell line, 72 hours incubation
Protocol: as §1

MIA PaCa-2 = settings: Homo sapiens; MIA PaCa-2 cell line, 72 hours incubation
Protocol: as §1

G-361 = settings: Homo sapiens; G-361 cell line, 72 hours incubation
Protocol: as §1

UWB1.289 = settings: Homo sapiens, UWB1289; UWB1.289 cell line, 72 hours incubation
Protocol: as §1

SNU-5 = settings: Homo sapiens; SNU-5 cell line, 72 hours incubation
Protocol: as §1

HT-29 = settings: Homo sapiens; HT-29 cell line, 72 hours incubation
Protocol: as §1

SK-OV-3 = settings: Homo sapiens; SK-OV-3 cell line, 72 hours incubation
Protocol: as §1

MM1.R = settings: Homo sapiens, MM.1R; MM1.R cell line, 72 hours incubation
Protocol: as §1

786-O = settings: Homo sapiens, 786-0; 786-O cell line, 72 hours incubation
Protocol: as §1

SHP-77 = settings: Homo sapiens, SHP77; SHP-77 cell line, 72 hours incubation
Protocol: as §1

AU565 = settings: Homo sapiens; AU565 cell line, 72 hours incubation
Protocol: as §1

SNU-16 = settings: Homo sapiens; SNU-16 cell line, 72 hours incubation
Protocol: as §1

Work on `O=C(c1ccc(Oc2ccccc2)cc1Cl)c1c[nH]c2ncnc(N[C@@H]3CC[C@@H](CO)OC3)c12` [nemtabrutinib] yielded an IC50 (NCI-H716) of 1460 nM, an IC50 (RS4;11) of 7800 nM and an IC50 (COLO 829) of 1540 nM. It also gave an IC50 (HEC-6) of 22300 nM, an IC50 (SR) of 9150 nM and an IC50 (LC-2/ad) of 1260 nM. The IC50 (K-562) was 2570 nM, the IC50 (TT) was 5330 nM and the IC50 (CCRF-CEM) was 13700 nM. For the same compound, the IC50 (Hs 746.T) was 11400 nM, the IC50 (ES-2) was 929 nM and the IC50 (DU4475) was 1130 nM. For the same compound, the IC50 (Hep-G2) was 979 nM, the IC50 (CTV-1) was 702 nM and the IC50 (RPMI-7951) was 2220 nM. It also gave an IC50 (CAL-27) of 1290 nM, an IC50 (LS411N) of 767 nM and an IC50 (T98G) of 4520 nM. It also gave an IC50 (MeWo) of 10200 nM, an IC50 (L-82) of 14000 nM and an IC50 (MIA PaCa-2) of 2770 nM. The IC50 (G-361) was 1080 nM, the IC50 (UWB1.289) was 2490 nM and the IC50 (SNU-5) was 8050 nM. For the same compound, the IC50 (HT-29) was 369 nM, the IC50 (SK-OV-3) was 4950 nM and the IC50 (MM1.R) was 8230 nM. For the same compound, the IC50 (786-O) was 6720 nM, the IC50 (SHP-77) was 14600 nM and the IC50 (AU565) was 3260 nM. It also gave an IC50 (SNU-16) of 1810 nM.
